Experimental data from patent US12162877B2, “Human dihydroorotate dehydrogenase (hDHODH) inhibitors and their use in targeting oncological diseases sensitive to pyrimidine starvation” (DRUG DISCOVERY AND CLINIC S.R.L., priority 2018, dated 2024).
In brackets after ≈: the same amount, converted by molar mass. Where two headings read alike, the source gives them in different places. One block for each compound: values may come before it.

Columns and labels:
[1] = 24 h, pH 7.4
Jurkat T cells [2] = experiment: Cytotoxicity assay, Jurkat T cells (CellTox green); format: cell-based; conditions: 72 h, concentration causing significant (≥30%) cytotoxic effect
PHA-stimulated PBMC [3] = conditions: inhibition of PHA-stimulated PBMC proliferation; value from ref. 29; read-out: Immunosuppression IC50 ± SE; cited from earlier work
recombinant hDHODH = recombinant hDHODH (Homo sapiens (Human), UniProt Q02127); experiment: hDHODH inhibition assay (DCIP reduction); format: biochemical
Procedure: Protein expression and purification. […] The vector produces hDHODH as an N-terminal GST-fusion protein. The plasmid pFN2A-hDHODH was transformed into BL21 (DE3), pyrD E. coli cells for protein production. Cells were grown at 37° C. in LB medium supplemented with 0.1 mM flavin mononucleotide. […] Triton X-100 was added to the lysate, to a final concentration of 1%, before centrifugation at 14000×g for 40 min at 4° C. The clarified supernatant was incubated with DNase I (Sigma Aldrich), for 30 min at room temperature, supplemented with 2 mM DTT and filtered through a 0.45 μm syringe filter. The GST-fused enzyme was purified from the bacterial lysate using affinity chromatography on immobilized glutathione-sepharose columns and fast protein liquid chromatography (FPLC). The GST tag was not removed for further studies.
hDHODH inhibition assay. Inhibitory activity was assessed by monitoring the reduction of 2,6-dichloroindophenol (DCIP), which is associated with the oxidation of dihydroorotate as catalyzed by the DHODH enzyme. The enzyme was preincubated for five minutes at 37° C. in Tris-buffer solution (pH 8.0), with coenzyme Q10 (100 μM), with the compounds to be tested used at different concentrations (final DMSO concentration 0.1% v/v), with DCIP (50 μM). The reaction was initiated by the addition of DHO (500 μM), and the reduction was monitored at λ=650 nm. […] Values are means±SE of three independent experiments.

[4] = log D (pH 7.4) shake-flask; format: physicochemical; conditions: n-octanol/PBS
[5] = test system: PANC-1 (pancreatic cancer cells); experiment: Cytotoxicity in human cancer cell lines, PANC-1; format: cell-based; conditions: PANC-1, 72 h
Excerpt: (§1) In the last phase of their study, the present inventors evaluated the effects of our hDHODH inhibitors on a series of human cancer cell lines.

[6] = test system: HCT-116 (colon cancer cells); experiment: Cytotoxicity in human cancer cell lines, HCT-116; format: cell-based; conditions: HCT-116, 72 h
Excerpt: as §1

PHA-stimulated PBMC [7] = experiment: Immunosuppression assay, PHA-stimulated PBMC proliferation; format: cell-based
THP1 [8] = experiment: CFSE-based cytotoxic activity assay, THP1; format: cell-based; conditions: THP1, 0.01-10 μM, 3 days, FIG. 5A
Jurkat T cells [9] = experiment: Proliferation assay, Jurkat T cells (Hoechst 33258 DNA content); format: cell-based; conditions: 72 h
U937 [10] = experiment: Differentiation assay, U937 (CD11b); format: cell-based, human
Procedure: (§2) Cell lines and drug treatment.
(§3) Flow cytometric analysis. The expression of CD11b (PE-conjugated BD Bioscience San Jose, CA, USA), and CD14 (FITC-conjugated Beckam Coulter CA, USA), cell surface molecules was determined by flow cytometry analysis. […] Samples were acquired on a FACS Calibur and dead cells were excluded from the analyses, according to the use of propidium iodide (Sigma-Aldrich, Milan, Italy). Data were processed using Kaluza software version 1.2 (Beckman Coulter Fullerton, CA).
(§4) Differentiation assay. 1×10^4 cells (THP1 and U937), were plated in 96 well round-bottom plates and DHODH inhibitors were added, from 0.1 μM to 10 μM, to a volume of 200 μl of medium. The differentiation kinetics was monitored from day 1 to day 4 for U937, and to day 5 for THP1. Cells were washed and either stained with CD11b (U937), or with CD11b and CD14 (THP1), as described above. The differentiation assay was also performed in the presence of uridine 100 μM and analyzed on day 3

[11] = Protein binding in vitro (ultrafiltration); format: in vitro ADME; conditions: human serum protein binding
THP1 [12] = experiment: Differentiation assay, THP1 (CD14); format: cell-based, human
Procedure: as §2, §3, §4

[13] = test system: HEPG2 (liver hepatocellular cancer cells); experiment: Cytotoxicity in human cancer cell lines, HEPG2; format: cell-based
Excerpt: as §1

U937 [14] = experiment: CFSE-based cytotoxic activity assay, U937; format: cell-based; conditions: U937, 0.01-10 μM, 3 days, FIG. 5A
Serum stability = format: in vitro ADME; conditions: 37° C.
[15] = test system: MDA MB231 (breast cancer cells); experiment: Cytotoxicity in human cancer cell lines, MDA MB231; format: cell-based; conditions: MDA-MB-231, MDA MB231, 72 h
Excerpt: as §1

[16] = test system: A2780 (ovarian cancer cells); experiment: Cytotoxicity in human cancer cell lines, A2780; format: cell-based; conditions: A2780, 72 h
Excerpt: as §1

[17] = in vitro assay, means ± SE of three experiments, read-out: hDHODH IC50 ± SE
[18] = enzymatic assay, values in text, read-out: hDHODH IC50
[19] = with uridine, read-out: Cytotoxicity IC50 with Uridine

recombinant hDHODH, sequence (Q02127 31-395): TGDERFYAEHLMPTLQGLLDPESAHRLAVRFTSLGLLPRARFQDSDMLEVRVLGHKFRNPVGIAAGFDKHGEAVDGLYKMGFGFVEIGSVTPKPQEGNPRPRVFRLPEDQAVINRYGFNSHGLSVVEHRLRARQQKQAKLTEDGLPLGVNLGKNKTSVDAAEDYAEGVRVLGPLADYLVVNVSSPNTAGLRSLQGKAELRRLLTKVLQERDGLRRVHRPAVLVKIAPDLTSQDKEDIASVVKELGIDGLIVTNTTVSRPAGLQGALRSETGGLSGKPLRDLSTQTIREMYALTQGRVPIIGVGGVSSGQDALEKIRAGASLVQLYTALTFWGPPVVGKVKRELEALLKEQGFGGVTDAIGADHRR

Solubility in PBS [1]: 2692 µM (≈ 727 µg/mL)
SMILES: C/C(O)=C(\C#N)C(=O)Nc1ccc(C(F)(F)F)cc1 [Teriflunomide, teriflunomide]
Cytotoxicity (effect ≥30%) (Jurkat T cells [2]): 53 ± 3 µM | IC50 (PHA-stimulated PBMC [3]): 54300 nM

IC50 (recombinant hDHODH; [18]): 5.9 nM
SMILES: O=C(Nc1c(F)c(F)c(-c2ccccc2)c(F)c1F)c1c(O)nn2c1CCCC2 [Compound 30, 2-Hydroxy-N-(2,3,5,6-tetrafluoro-[1,1′-biphenyl]-4-yl)-4,5,6,7-tetrahydropyrazolo[1,5-a]pyridine-3-carboxamide]

logD [4]: > 3 | IC50 (recombinant hDHODH; [18]): 2.3 nM
SMILES: O=C(Nc1c(F)c(F)c(-c2cccc(C(F)(F)F)c2)c(F)c1F)c1c(O)nn2ccccc12 [Compound 33, 2-Hydroxy-N-(2,3,5,6-tetrafluoro-3′-(trifluoromethyl)-[1,1′-biphenyl]-4-yl)pyrazolo[1,5-a]pyridine-3-carboxamide]

logD [4]: > 3 | IC50 (recombinant hDHODH; [18]): 2 nM
SMILES: O=C(Nc1c(F)c(F)c(-c2cccc(F)c2)c(F)c1F)c1c(O)nn2ccccc12 [Compound 32, 2-Hydroxy-N-(2,3,3′,5,6-pentafluoro-[1,1′-biphenyl]-4-yl)pyrazolo[1,5-a]pyridine-3-carboxamide]

Second part, the compound before the results:

SMILES: Cc1cc(NC(=O)c2c(O)nn3ccccc23)ccc1Oc1ccccc1 [Compound 9, 2-Hydroxy-N-(3-methyl-4-phenoxyphenyl)pyrazolo[1,5-a]pyridine-3-carboxamide]
IC50 (recombinant hDHODH; [17]): 480 ± 31 nM

SMILES: Cn1nc(O)c(C(=O)Nc2c(F)c(F)c(-c3ccccc3)c(F)c2F)n1 [Compound 2]
IC50 (recombinant hDHODH; [17]): 45 ± 13 nM

SMILES: Cc1cc(Oc2ccccc2)c(C)cc1NC(=O)c1c(O)nn2ccccc12 [Compound 10, N-(2,5-Dimethyl-4-phenoxyphenyl)-2-hydroxypyrazolo[1,5-a]pyridine-3-carboxamide]
IC50 (recombinant hDHODH; [18]): 43 nM | IC50 (recombinant hDHODH; [17]): 43 nM

SMILES: Cc1cccc2c(C(=O)Nc3c(F)c(F)c(-c4ccccc4)c(F)c3F)c(O)nn12 [Compound 5, 2-Hydroxy-7-methyl-N-(2,3,5,6-tetrafluoro-[1,1′-biphenyl]-4-yl)pyrazolo[1,5-a]pyridine-3-carboxamide]
IC50 (recombinant hDHODH; [18]): 4.3 nM

SMILES: O=C(Nc1c(F)c(F)c(-c2ccccc2)c(F)c1F)c1c(O)nn2ccccc12 [Compound 4, 2-Hydroxy-N-(2,3,5,6-tetrafluoro-[1,1′-biphenyl]-4-yl)pyrazolo[1,5-a]pyridine-3-carboxamide]
times more potent than teriflunomide (hDHODH) (recombinant hDHODH; enzymatic assay, ratio of IC50): 320 times

SMILES: O=C(Nc1ccc(Oc2ccccc2)cc1)c1c(O)nn2ccccc12 [Compound 8, 2-Hydroxy-N-(4-phenoxyphenyl)pyrazolo[1,5-a]pyridine-3-carboxamide]
IC50 (recombinant hDHODH; [18]): 760 nM | IC50 (recombinant hDHODH; [17]): 760 ± 136 nM

SMILES: Cc1c(-c2ccc(-c3ccccc3F)cc2)nc2ccc(F)cc2c1C(=O)O [Brequinar, brequinar]
IC50 ([5]; read-out: Cytotoxicity IC50): 280 nM | IC50 [5, 19]: < 100 nM | IC50 ([6]; read-out: Cytotoxicity IC50): 97 nM | IC50 [6, 19]: 3000 nM | antiproliferative effect on PHA-activated PBMCs, times greater than teriflunomide (PHA-stimulated PBMC [7]): 10 times | cytotoxicity (THP1 [8]): strong and concentration-dependent cytotoxicity | Solubility in PBS with 2% DMSO [1]: 449 µM | IC50 (Jurkat T cells [9]; in the presence of 100 μM uridine, read-out: Proliferation IC50 ± SE + Uridine): 94200 ± 2080 nM | IC50 (Jurkat T cells [9]; read-out: Proliferation IC50 ± SE): 910 ± 70 nM | myeloid differentiation, CD11b expression (U937 [10]; U937, FIG. 6A): strong differentiation | differentiation when uridine is added (U937 [10]; U937, uridine 100 μM, day 3, FIG. 6C): reversed | % bound [11]: 98.83% | myeloid differentiation, CD14 expression (THP1 [12]; THP1, FIG. 6B): strong differentiation | differentiation when uridine is added (THP1 [12]; THP1, uridine 100 μM, day 3, FIG. 6D): reversed | IC50 ([13]; HEPG2, 72 h, with uridine, read-out: Cytotoxicity IC50 with Uridine): > 10000 nM | IC50 ([13]; HepG2, 72 h, read-out: Cytotoxicity IC50): 46 nM | cytotoxicity (U937 [14]): strong and concentration-dependent cytotoxicity | % compound after 24 h in human serum (Serum stability): 98% | IC50 ([15]; read-out: Cytotoxicity IC50): 1300 nM | IC50 [15, 19]: > 100000 nM | IC50 ([16]; read-out: Cytotoxicity IC50): < 100 nM | IC50 [16, 19]: 15500 nM

SMILES: Cn1c(=O)c(C(=O)Nc2c(F)c(F)c(-c3ccccc3)c(F)c2F)c2ccccn21 [Compound 7, 1-Methyl-2-oxo-N-(2,3,5,6-tetrafluoro-[1,1′-biphenyl]-4-yl)-1,2-dihydropyrazolo[1,5-a]pyridine-3-carboxamide]
IC50 (recombinant hDHODH; [17]): > 5000 nM
